In publication PMC9732360, “Discovery and structure of a widespread bacterial ABC transporter specific for ergothioneine” (Nature Communications, 2022):

What was measured:
SpEgtUC [1] = target: T1, SpEgtUC (Streptococcus pneumoniae, UniProt A0A0H2ZQB9); assay: NMR chemical shift perturbation titration; type: binding; settings: read-out: Ka (M^-1) (converted)
T1 construct: gene egtUBC; N-terminal His6-SUMO cleaved off; expressed in E. coli BL21(DE3); monomer
Text: NMR chemical shift perturbation titration on SpEgtUC

EgtUA = EgtUA (Streptococcus pneumoniae, UniProt A0A0H2ZLL3)
SpEgtUC [2] = target: T2, SpEgtUC (Streptococcus pneumoniae, UniProt A0A0H2ZQB9, E375Q); assay: biochemical
T2 construct: gene egtUBC

SpEgtUC [3] = target: T3, SpEgtUC (Streptococcus pneumoniae, UniProt A0A0H2ZQB9, G244F); assay: biochemical
T3 construct: gene egtUBC

EfEgtUC = target: T4, EfEgtUC (Enterococcus faecalis, UniProt Q837Z8); assay: intrinsic tyrosine fluorescence titration; type: binding; settings: read-out: Ka (M^-1) (converted)
T4 construct: gene egtUBC; N-terminal His6-SUMO cleaved off; expressed in E. coli BL21(DE3)
T4 sequence (Q837Z8 233-505): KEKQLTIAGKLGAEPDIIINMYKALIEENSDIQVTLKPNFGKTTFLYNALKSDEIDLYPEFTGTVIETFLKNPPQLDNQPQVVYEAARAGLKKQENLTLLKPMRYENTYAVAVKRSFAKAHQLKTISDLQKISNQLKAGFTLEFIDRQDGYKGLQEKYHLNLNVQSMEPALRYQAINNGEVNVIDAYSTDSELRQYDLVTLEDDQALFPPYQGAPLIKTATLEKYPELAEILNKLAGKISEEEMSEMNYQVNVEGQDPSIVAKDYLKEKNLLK
Text: intrinsic tyrosine fluorescence titration on EfEgtUC

SpEgtUCCTT = target: T5, SpEgtUCCTT (Streptococcus pneumoniae, UniProt A0A0H2ZQB9, G502V/L503C); assay: biochemical
T5 construct: gene egtUBC

SaEgtUC = target: T6, SaEgtUC (Staphylococcus aureus, UniProt A0A0H2XK79); assay: intrinsic tyrosine fluorescence titration; type: binding; settings: read-out: Ka (M^-1) (converted)
T6 construct: gene egtUBC; N-terminal His6-SUMO cleaved off; expressed in E. coli BL21(DE3)
T6 sequence (A0A0H2XK79 233-504): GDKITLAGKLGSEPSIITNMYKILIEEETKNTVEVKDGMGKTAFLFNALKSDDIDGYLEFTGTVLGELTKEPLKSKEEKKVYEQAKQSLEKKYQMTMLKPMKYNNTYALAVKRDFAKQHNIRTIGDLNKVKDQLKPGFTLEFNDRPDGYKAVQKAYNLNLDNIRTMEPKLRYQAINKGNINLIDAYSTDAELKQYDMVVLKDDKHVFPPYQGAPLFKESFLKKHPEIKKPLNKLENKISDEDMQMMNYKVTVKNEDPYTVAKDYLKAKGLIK
Text: intrinsic tyrosine fluorescence titration on SaEgtUC

SpEgtUC [4] = target: T7, SpEgtUC (Streptococcus pneumoniae, UniProt A0A0H2ZQB9, F293Y); assay: biochemical
T7 construct: gene egtUBC

LmEgtUC = target: T8, LmEgtUC (Listeria monocytogenes, UniProt Q8Y775); assay: intrinsic tyrosine fluorescence titration; type: binding; settings: read-out: Ka (M^-1) (converted)
T8 construct: gene egtUBC; N-terminal His6-SUMO cleaved off; expressed in E. coli BL21(DE3); the lmo locus tag is of strain EGD-e, strain used printed as 10403S
Text: intrinsic tyrosine fluorescence titration on LmEgtUC

SpEgtUC [5] = target: T9, SpEgtUC (Streptococcus pneumoniae, UniProt A0A0H2ZQB9, Y419F); assay: biochemical
T9 construct: gene egtUBC

SpEgtUC [6] = target: T1, SpEgtUC; assay: isothermal titration calorimetry; type: binding; settings: read-out: Ka (M^-1) (converted)
Text: isothermal titration calorimetry on SpEgtUC

T1 sequence (A0A0H2ZQB9 233-506): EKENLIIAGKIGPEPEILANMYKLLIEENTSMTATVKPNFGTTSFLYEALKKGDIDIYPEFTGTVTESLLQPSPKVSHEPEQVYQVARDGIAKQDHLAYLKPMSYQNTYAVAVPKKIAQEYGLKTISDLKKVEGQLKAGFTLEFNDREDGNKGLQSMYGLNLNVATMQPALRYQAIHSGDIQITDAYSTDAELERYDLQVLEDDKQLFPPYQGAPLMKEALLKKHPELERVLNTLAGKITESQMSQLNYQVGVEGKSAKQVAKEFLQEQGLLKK
T7 sequence (A0A0H2ZQB9 233-506 F293Y): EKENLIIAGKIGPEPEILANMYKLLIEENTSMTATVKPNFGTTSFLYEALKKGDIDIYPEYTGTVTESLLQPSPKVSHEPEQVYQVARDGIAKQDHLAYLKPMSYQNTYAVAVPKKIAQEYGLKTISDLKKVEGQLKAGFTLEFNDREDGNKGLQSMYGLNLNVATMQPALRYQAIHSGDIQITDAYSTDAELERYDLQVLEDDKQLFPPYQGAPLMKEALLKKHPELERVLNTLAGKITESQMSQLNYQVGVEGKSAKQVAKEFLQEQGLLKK
Chain of EgtUA (A0A0H2ZLL3 whole entry): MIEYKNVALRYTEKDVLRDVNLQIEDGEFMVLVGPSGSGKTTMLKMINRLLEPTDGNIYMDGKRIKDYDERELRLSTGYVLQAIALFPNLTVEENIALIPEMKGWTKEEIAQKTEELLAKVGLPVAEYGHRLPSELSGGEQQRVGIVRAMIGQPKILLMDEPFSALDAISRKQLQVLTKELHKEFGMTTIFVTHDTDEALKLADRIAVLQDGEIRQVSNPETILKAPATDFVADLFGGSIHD
T3 sequence (A0A0H2ZQB9 233-506 G244F): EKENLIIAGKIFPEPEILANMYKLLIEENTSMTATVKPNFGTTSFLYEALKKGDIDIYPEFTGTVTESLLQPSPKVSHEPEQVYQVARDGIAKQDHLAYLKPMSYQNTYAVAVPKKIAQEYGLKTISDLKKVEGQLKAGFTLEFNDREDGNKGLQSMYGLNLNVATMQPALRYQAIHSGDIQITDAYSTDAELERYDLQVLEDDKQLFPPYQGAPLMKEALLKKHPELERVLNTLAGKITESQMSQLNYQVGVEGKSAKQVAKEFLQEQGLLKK
T2 sequence (A0A0H2ZQB9 233-506 E375Q): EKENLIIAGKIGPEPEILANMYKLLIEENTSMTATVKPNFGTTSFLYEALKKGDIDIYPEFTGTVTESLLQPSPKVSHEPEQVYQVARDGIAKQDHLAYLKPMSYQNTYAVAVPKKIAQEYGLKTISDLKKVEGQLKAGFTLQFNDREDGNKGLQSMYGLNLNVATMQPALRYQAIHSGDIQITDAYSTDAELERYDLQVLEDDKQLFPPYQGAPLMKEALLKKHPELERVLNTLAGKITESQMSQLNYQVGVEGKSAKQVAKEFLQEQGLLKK
T9 sequence (A0A0H2ZQB9 233-506 Y419F): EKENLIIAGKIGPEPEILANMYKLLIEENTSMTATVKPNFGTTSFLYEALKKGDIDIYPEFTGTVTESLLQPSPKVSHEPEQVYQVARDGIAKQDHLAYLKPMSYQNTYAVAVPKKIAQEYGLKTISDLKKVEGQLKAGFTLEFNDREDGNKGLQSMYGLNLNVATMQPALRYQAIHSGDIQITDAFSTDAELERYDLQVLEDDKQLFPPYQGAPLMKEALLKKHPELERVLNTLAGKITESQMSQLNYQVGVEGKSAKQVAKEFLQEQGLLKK
T8 sequence (Q8Y775 231-504): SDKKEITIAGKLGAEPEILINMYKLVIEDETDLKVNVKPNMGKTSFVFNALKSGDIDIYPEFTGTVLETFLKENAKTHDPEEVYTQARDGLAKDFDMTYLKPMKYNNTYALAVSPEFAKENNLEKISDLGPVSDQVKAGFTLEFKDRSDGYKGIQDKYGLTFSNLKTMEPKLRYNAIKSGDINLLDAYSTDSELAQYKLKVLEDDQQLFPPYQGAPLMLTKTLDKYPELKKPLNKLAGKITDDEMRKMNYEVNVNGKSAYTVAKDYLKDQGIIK
T5 sequence (A0A0H2ZQB9 233-503 G502V/L503C): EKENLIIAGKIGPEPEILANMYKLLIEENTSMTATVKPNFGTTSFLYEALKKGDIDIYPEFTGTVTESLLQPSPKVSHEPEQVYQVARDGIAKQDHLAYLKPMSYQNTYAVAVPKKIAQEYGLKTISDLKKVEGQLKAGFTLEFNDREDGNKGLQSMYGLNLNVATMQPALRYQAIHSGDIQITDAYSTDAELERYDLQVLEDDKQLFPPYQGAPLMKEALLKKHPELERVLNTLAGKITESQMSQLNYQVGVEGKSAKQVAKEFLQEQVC

C[N+](C)(C)[C@@H](Cc1cnc[nH]1)C(=O)[O-] [HER, L-hercynine] gave a Kd (SpEgtUC [1]) of 1670 µM.
In the case of Nc1ncnc2c1ncn2[C@@H]1O[C@H](COP(=O)(O)OP(=O)(O)OP(=O)(O)O)[C@@H](O)[C@H]1O [ATP], the “in vitro ATPase activity” value (EgtUA) is reported as “ATPase activity of WT vs. mutant EgtUA proteins in vitro”.
With C[N+](C)(C)CC(=O)[O-] [GB, glycine betaine] the Kd (SpEgtUC [1]) was greater than 33300 µM.
Work on C[N+](C)(C)[C@@H](Cc1c[nH]c(=S)[nH]1)C(=O)[O-] [ET, L-ergothioneine] yielded a Kd (SpEgtUC [2]) of 25 µM, a Kd (SpEgtUC [3]) of 5 µM and a Kd (EfEgtUC) of 0.0625 µM. For the same molecule, the Kd (SpEgtUCCTT) was 0.0526 µM, the Kd (SaEgtUC) was 0.217 µM and the Kd (SpEgtUC [4]) was 0.5 µM. It also gave a Kd (LmEgtUC) of 0.0556 µM, a Kd (SpEgtUC [5]) of 0.625 µM and a Kd (SpEgtUC [6]) of 0.0588 µM.
